Assay results from patent US12304912B2, “Fused bicyclic RAF inhibitors and methods for use thereof” (Jazz Pharmaceuticals Ireland Limited, priority 2020, dated 2025).
Read-outs that look alike come from different tables or passages of the source.

Legend:
[1] = Plasma protein binding assay, human plasma (hPPB); assay type: in vitro ADME; conditions: 5 μM
Procedure, shortened: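 Equilibrium dialysis of 5 μM compound in previously frozen human or mouse plasma against phosphate buffer, 4 h at 37 °C. Both chambers quantified by LC-MS/MS; % free = (1−((PC−PF)/PC))×100.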

[2] = test system: BRAF monomers in A375 cells; test: A375 AlphaLISA SureFire pERK1/2 cellular assay (monomer); assay type: cell-based; conditions: Homo sapiens, read-out: pERK A375 (1 hr) pIC50 (converted)
Procedure, shortened: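 BRAF^V600E A375 melanoma cells seeded at 30,000/well in DMEM with 10% FBS, dosed without medium exchange in a 10-point series from 10 μM at 1/2-log steps, 1 h at 37 °C. Phospho-ERK1/2 (Thr202/Tyr204) measured in lysates by AlphaLISA SureFire; absolute IC50 relative to DMSO control.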

[3] = test system: constitutive ERK phosphorylation in HCT-116 cells; test: HCT-116 AlphaLISA SureFire pERK1/2 cellular assay; assay type: cell-based, human; conditions: Homo sapiens, read-out: pERK HCT116 (2 hr) Abs pIC50 (converted)
Procedure, shortened: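 Cells seeded overnight (30,000/well for 2 h, 15,000/well for 24 h), then dosed in 1% FBS medium with a 10-point series from 1 μM top, 1/3 log steps, for 2 or 24 h at 37 °C. Lysates read by AlphaLISA for Thr202/Tyr204 pERK1/2; absolute IC50 versus DMSO control.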

[4] = equilibrium dialysis 4 hours at 37° C.
[5] = HCT-116, HCT116 cells, 2 hr, Abs
[6] = equilibrium dialysis 4 hours 37° C.
[7] = HCT-116, HCT116 cells, 2 hr, absolute IC50

| SMILES | hPPB (% free) [1, 4] [% free] | IC50 ([2]; A-375, A375 cells, 1 hr) [nM] | IC50 [3, 5] [nM] | hPPB (% free) [1, 6] [% free] | IC50 [3, 7] [nM] | IC50 ([2]; A-375, 1 h) [nM] | IC50 ([3]; HCT-116, 2 h) [nM] |
| --- | --- | --- | --- | --- | --- | --- | --- |
| Cn1nc(C(F)(F)F)cc1-c1c[nH]c(C2COc3ccc(Oc4ccnc5c4CCC(=O)N5)cc3C2)n1 (stereo not drawn) [Compound 107, 5-[3-[4-[2-methyl-5-(trifluoromethyl)pyrazol-3-yl]-1H-imidazol-2-yl]chroman-6-yl]oxy-3,4-dihydro-1H-1,8-naphthyridin-2-one] | 0.7 | 178 | 191 | – | – | – | – |
| O=C(CN1CCCC1)Nc1cc(Oc2ccc3c(c2)CC(c2nc(-c4ccccc4)c[nH]2)CO3)ccn1 (stereo not drawn) [Compound 152] | 0.48 | 603 | 209 | – | – | – | – |
| Cc1cc(-c2c[nH]c(C3COc4ccc(Oc5ccnc6c5CCC(=O)N6)cc4C3)n2)ccn1 (stereo not drawn) [Compound 117, 5-[3-[4-(2-methyl-4-pyridyl)-1H-imidazol-2-yl]chroman-6-yl]oxy-3,4-dihydro-1H-1,8-naphthyridin-2-one] | 2.6 | 724 | 107 | – | – | – | – |
| CC1CC1C(=O)Nc1cc(Oc2ccc3c(c2)CC(c2nc(-c4ccccc4)c[nH]2)CO3)ccn1 (stereo not drawn) [Compound 157] | <0.1 | 525 | 112 | – | – | – | – |
| O=C1CCc2c(Oc3ccc4c(c3)CC(c3nc(-c5cncc(C(F)(F)F)c5)c[nH]3)CO4)ccnc2N1 (stereo not drawn) [Compound 103, 5-[3-[4-[5-(trifluoromethyl)-3-pyridyl]-1H-imidazol-2-yl]chroman-6-yl]oxy-3,4-dihydro-1H-1,8-naphthyridin-2-one] | 0.6 | 389 | 240 | – | – | – | – |
| O=C1CCc2c(Oc3ccc4c(c3)CC(c3nc5cc(C(F)(F)F)ncc5[nH]3)CO4)ccnc2N1 (racemic) [Compound 32] | – | 251 | – | 1.3 | 229 | – | – |
| O=C(Nc1cc(Oc2ccc3c(c2)CC(c2nc(-c4ccccc4)c[nH]2)CO3)ncn1)C1CC1 (stereo not drawn) [Compound 151, N-[6-[3-(4-phenyl-1H-imidazol-2-yl)chroman-6-yl]oxypyrimidin-4-yl]cyclopropanecarboxamide] | 0.21 | – | – | – | – | 347 | 178 |
| N#Cc1ccc2[nH]c(C3COc4ccc(Oc5ccnc6c5CCC(=O)N6)cc4C3)nc2c1 (stereo not drawn) [Compound 24] | – | 562 | – | 1.8 | 407 | – | – |
| O=C(Nc1cc(Oc2ccc3c(c2)CC(c2nc(-c4ccccc4)c[nH]2)CO3)ccn1)C1(F)CC1 (stereo not drawn) [Compound 138] | <0.1 | 1620 | 275 | – | – | – | – |
| O=C1CCc2c(Oc3ccc4c(c3)CC(c3nc5cc(F)c(F)cc5[nH]3)CO4)ccnc2N1 (stereo not drawn) [Compound 23] | – | 257 | – | 0.5 | 316 | – | – |
| O=C1CCc2c(Oc3ccc4c(c3)CN(c3nc5cc(C(F)(F)F)ccc5[nH]3)CC4)ccnc2N1 [Compound 160] | 0.3 | 871 | 135 | – | – | – | – |
| CC(C)CCc1c[nH]c(C2COc3ccc(Oc4ccnc5c4CCC(=O)N5)cc3C2)n1 (stereo not drawn) [Compound 116] | 0.13 | 46.8 | 67.6 | – | – | – | – |
| O=C(CN1CCOCC1)Nc1cc(Oc2ccc3c(c2)CC(c2nc(-c4ccccc4)c[nH]2)CO3)ccn1 (stereo not drawn) [Compound 149] | 0.25 | 1320 | 316 | – | – | – | – |
| Cn1ncc2ccc(-c3c[nH]c(C4COc5ccc(Oc6ccnc7c6CCC(=O)N7)cc5C4)n3)cc21 (stereo not drawn) [Compound 130, 5-[3-[4-(1-methylindazol-6-yl)-1H-imidazol-2-yl]chroman-6-yl]oxy-3,4-dihydro-1H-1,8-naphthyridin-2-one] | 0.1 | 1000 | 141 | – | – | – | – |
| CC(C)(C)CCc1c[nH]c(C2COc3ccc(Oc4ccnc5c4CCC(=O)N5)cc3C2)n1 (stereo not drawn) [Compound 115, 5-[3-[4-(3,3-dimethylbutyl)-1H-imidazol-2-yl]chroman-6-yl]oxy-3,4-dihydro-1H-1,8-naphthyridin-2-one] | 0.3 | 13.8 | 45.7 | – | – | – | – |
| O=C(Cn1cncn1)Nc1cc(Oc2ccc3c(c2)CC(c2nc(-c4ccccc4)c[nH]2)CO3)ccn1 (stereo not drawn) [Compound 154] | 0.75 | 97.7 | 28.2 | – | – | – | – |
| O=C(Cn1ccnc1)Nc1cc(Oc2ccc3c(c2)CC(c2nc(-c4ccccc4)c[nH]2)CO3)ccn1 (stereo not drawn) [Compound 144] | 0.7 | 204 | 45.7 | – | – | – | – |
| COc1cc(-c2c[nH]c(C3COc4ccc(Oc5ccnc6c5CCC(=O)N6)cc4C3)n2)ccn1 (stereo not drawn) [Compound 19, 5-[3-[4-(2-methoxy-4-pyridyl)-1H-imidazol-2-yl]chroman-6-yl]oxy-3,4-dihydro-1H-1,8-naphthyridin-2-one] | – | 1620 | – | 1.9 | 316 | – | – |
| Cc1c[nH]c(-c2cc(Oc3ccc4c(c3)CC(c3nc(-c5ccccc5)c[nH]3)CO4)ccn2)n1 (stereo not drawn) [Compound 143, 2-(4-methyl-1H-imidazol-2-yl)-4-[3-(4-phenyl-1H-imidazol-2-yl)chroman-6-yl]oxy-pyridine] | <0.1 | 794 | 309 | – | – | – | – |
| O=C1CCc2c(Oc3ccc4c(c3)CC(c3nc5cc(Cl)ccc5[nH]3)CO4)ccnc2N1 (stereo not drawn) [Compound 25] | – | 115 | – | 0.3 | 85.1 | – | – |
| O=C1CCc2c(Oc3ccc4c(c3)CC(c3nc(-c5cccc(C(F)(F)F)c5)c[nH]3)CO4)ccnc2N1 (stereo not drawn) [Compound 12, 5-[3-[4-[3-(trifluoromethyl)phenyl]-1H-imidazol-2-yl]chroman-6-yl]oxy-3,4-dihydro-1H-1,8-naphthyridin-2-one] | – | 42.7 | – | <0.1 | 257 | – | – |
| Cc1cc2nc(C3COc4ccc(Oc5ccnc6c5CCC(=O)N6)cc4C3)[nH]c2cc1C (stereo not drawn) [Compound 29] | – | 32.4 | – | 0.2 | 132 | – | – |
| O=C1CCc2c(Oc3ccc4c(c3)CC(c3nc5ccncc5[nH]3)CO4)ccnc2N1 (stereo not drawn) [Compound 134, 5-[3-(3H-imidazo[4,5-c]pyridin-2-yl)chroman-6-yl]oxy-3,4-dihydro-1H-1,8-naphthyridin-2-one] | 6.1 | > 1000 | > 1000 | – | – | – | – |
